{
  "source": "PubChem BioAssay AID2060490",
  "about": "(Molecular Pharmacology Branch, DTP, NCI, 2025);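 further: spheroids exposed to the compounds for one week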;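 on viability, T/C: percent of tumor spheroid viability relative to DMSO vehicle control wells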",
  "test_system": "885512-296-R-J2-PDC complex spheroid viability",
  "test": "Anticancer human tumor 885512-296-R-J2-PDC patient-derived breast carcinoma cell line growth inhibition [GQUAD]",
  "conditions": "for IC50: curve of first compound; for viability, T/C: stronger effect = lower value",
  "method_in_brief": "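Viability of tumor cells grown as complex spheroids with endothelial and stromal cells, exposed to drug combinations. Top concentration at or near clinical Cmax (else 10 microM), diluted in half-log increments.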",
  "key": {"[1]": {"conditions": "second compound 0.0316 µM, first compound 0.000999 µM"}, "[2]": {"conditions": "second compound 0.0316 µM, first compound 0.00316 µM"}, "[3]": {"conditions": "second compound 0.0316 µM, first compound 0.00999 µM"}, "[4]": {"conditions": "second compound 0.0316 µM, first compound 0.0316 µM"}, "[5]": {"conditions": "second compound 0.0316 µM, first compound 0.0999 µM"}, "[6]": {"conditions": "second compound 0.0316 µM, first compound 0.316 µM"}, "[7]": {"conditions": "second compound 0.1 µM, first compound 0.000999 µM"}, "[8]": {"conditions": "second compound 0.1 µM, first compound 0.00316 µM"}, "[9]": {"conditions": "second compound 0.1 µM, first compound 0.00999 µM"}, "[10]": {"conditions": "second compound 0.1 µM, first compound 0.0316 µM"}, "[11]": {"conditions": "second compound 0.1 µM, first compound 0.0999 µM"}, "[12]": {"conditions": "second compound 0.1 µM, first compound 0.316 µM"}, "[13]": {"conditions": "second compound 0.316 µM, first compound 0.000999 µM"}, "[14]": {"conditions": "second compound 0.316 µM, first compound 0.00316 µM"}, "[15]": {"conditions": "second compound 0.316 µM, first compound 0.00999 µM"}, "[16]": {"conditions": "second compound 0.316 µM, first compound 0.0316 µM"}, "[17]": {"conditions": "second compound 0.316 µM, first compound 0.0999 µM"}, "[18]": {"conditions": "second compound 0.316 µM, first compound 0.316 µM"}, "[19]": {"conditions": "second compound 1 µM, first compound 0.000999 µM"}, "[20]": {"conditions": "second compound 1 µM, first compound 0.00316 µM"}, "[21]": {"conditions": "second compound 1 µM, first compound 0.00999 µM"}, "[22]": {"conditions": "second compound 1 µM, first compound 0.0316 µM"}, "[23]": {"conditions": "second compound 1 µM, first compound 0.0999 µM"}, "[24]": {"conditions": "second compound 1 µM, first compound 0.316 µM"}, "[25]": {"conditions": "second compound 3.16 µM, first compound 0.000999 µM"}, "[26]": {"conditions": "second compound 3.16 µM, first compound 0.00316 µM"}, "[27]": {"conditions": "second compound 3.16 µM, first compound 0.00999 µM"}, "[28]": {"conditions": "second compound 3.16 µM, first compound 0.0316 µM"}, "[29]": {"conditions": "second compound 3.16 µM, first compound 0.0999 µM"}, "[30]": {"conditions": "second compound 3.16 µM, first compound 0.316 µM"}, "[31]": {"conditions": "second compound 10 µM, first compound 0.000999 µM"}, "[32]": {"conditions": "second compound 10 µM, first compound 0.00316 µM"}, "[33]": {"conditions": "second compound 10 µM, first compound 0.00999 µM"}, "[34]": {"conditions": "second compound 10 µM, first compound 0.0316 µM"}, "[35]": {"conditions": "second compound 10 µM, first compound 0.0999 µM"}, "[36]": {"conditions": "second compound 10 µM, first compound 0.316 µM"}},
  "data": [
    {"smiles": "CC[C@@]1(O)C(=O)OCc2c1cc1n(c2=O)Cc2cc3c(CN(C)C)c(O)ccc3nc2-1", "note": "+ Cc1cnc(CNC(=O)c2c(=O)c3ccc(N4CCCN(C)CC4)nc3n3c2sc2ccccc23)cn1", "values": [
      {"measurement": "IC50", "setting": "second compound 0.0316 µM", "result": 13.9, "unit": "nM"},
      {"measurement": "IC50", "setting": "second compound 0.1 µM", "result": 3.86, "unit": "nM"},
      {"measurement": "IC50", "setting": "second compound 0.316 µM", "result": "< 0.999", "unit": "nM"},
      {"measurement": "IC50", "setting": "second compound 1 µM", "result": "< 0.999", "unit": "nM"},
      {"measurement": "IC50", "setting": "second compound 3.16 µM", "result": "< 0.999", "unit": "nM"},
      {"measurement": "IC50", "setting": "second compound 10 µM", "result": "< 0.999", "unit": "nM"},
      {"measurement": "viability, T/C", "setting": "[1]", "result": 82.1, "unit": "%"},
      {"measurement": "viability, T/C", "setting": "[2]", "result": 77.9, "unit": "%"},
      {"measurement": "viability, T/C", "setting": "[3]", "result": 62.1, "unit": "%"},
      {"measurement": "viability, T/C", "setting": "[4]", "result": 20.5, "unit": "%"},
      {"measurement": "viability, T/C", "setting": "[5]", "result": 15.2, "unit": "%"},
      {"measurement": "viability, T/C", "setting": "[6]", "result": 6.65, "unit": "%"},
      {"measurement": "viability, T/C", "setting": "[7]", "result": 63.8, "unit": "%"},
      {"measurement": "viability, T/C", "setting": "[8]", "result": 52.1, "unit": "%"},
      {"measurement": "viability, T/C", "setting": "[9]", "result": 37.4, "unit": "%"},
      {"measurement": "viability, T/C", "setting": "[10]", "result": 20.1, "unit": "%"},
      {"measurement": "viability, T/C", "setting": "[11]", "result": 13.4, "unit": "%"},
      {"measurement": "viability, T/C", "setting": "[12]", "result": 9.1, "unit": "%"},
      {"measurement": "viability, T/C", "setting": "[13]", "result": 30, "unit": "%"},
      {"measurement": "viability, T/C", "setting": "[14]", "result": 19.1, "unit": "%"},
      {"measurement": "viability, T/C", "setting": "[15]", "result": 21.3, "unit": "%"},
      {"measurement": "viability, T/C", "setting": "[16]", "result": 16.1, "unit": "%"},
      {"measurement": "viability, T/C", "setting": "[17]", "result": 16.9, "unit": "%"},
      {"measurement": "viability, T/C", "setting": "[18]", "result": 12, "unit": "%"},
      {"measurement": "viability, T/C", "setting": "[19]", "result": 21.8, "unit": "%"},
      {"measurement": "viability, T/C", "setting": "[20]", "result": 22.8, "unit": "%"},
      {"measurement": "viability, T/C", "setting": "[21]", "result": 18.4, "unit": "%"},
      {"measurement": "viability, T/C", "setting": "[22]", "result": 20.1, "unit": "%"},
      {"measurement": "viability, T/C", "setting": "[23]", "result": 15.2, "unit": "%"},
      {"measurement": "viability, T/C", "setting": "[24]", "result": 12, "unit": "%"},
      {"measurement": "viability, T/C", "setting": "[25]", "result": 29.7, "unit": "%"},
      {"measurement": "viability, T/C", "setting": "[26]", "result": 24, "unit": "%"},
      {"measurement": "viability, T/C", "setting": "[27]", "result": 24.8, "unit": "%"},
      {"measurement": "viability, T/C", "setting": "[28]", "result": 20.2, "unit": "%"},
      {"measurement": "viability, T/C", "setting": "[29]", "result": 12.8, "unit": "%"},
      {"measurement": "viability, T/C", "setting": "[30]", "result": 8.5, "unit": "%"},
      {"measurement": "viability, T/C", "setting": "[31]", "result": 0.07, "unit": "%"},
      {"measurement": "viability, T/C", "setting": "[32]", "result": 0.13, "unit": "%"},
      {"measurement": "viability, T/C", "setting": "[33]", "result": 0.24, "unit": "%"},
      {"measurement": "viability, T/C", "setting": "[34]", "result": 0.16, "unit": "%"},
      {"measurement": "viability, T/C", "setting": "[35]", "result": 0.17, "unit": "%"},
      {"measurement": "viability, T/C", "setting": "[36]", "result": 0.14, "unit": "%"}
    ]},
    {"smiles": "CCc1c2c(nc3ccc(O)cc13)-c1cc3c(c(=O)n1C2)COC(=O)[C@]3(O)CC", "note": "+ Cc1cnc(CNC(=O)c2c(=O)c3ccc(N4CCCN(C)CC4)nc3n3c2sc2ccccc23)cn1", "values": [
      {"measurement": "IC50", "setting": "second compound 0.0316 µM", "result": "< 0.999", "unit": "nM"},
      {"measurement": "IC50", "setting": "second compound 0.1 µM", "result": "< 0.999", "unit": "nM"},
      {"measurement": "IC50", "setting": "second compound 0.316 µM", "result": "< 0.999", "unit": "nM"},
      {"measurement": "IC50", "setting": "second compound 1 µM", "result": "< 0.999", "unit": "nM"},
      {"measurement": "IC50", "setting": "second compound 3.16 µM", "result": "< 0.999", "unit": "nM"},
      {"measurement": "IC50", "setting": "second compound 10 µM", "result": "< 0.999", "unit": "nM"},
      {"measurement": "viability, T/C", "setting": "[1]", "result": 17.9, "unit": "%"},
      {"measurement": "viability, T/C", "setting": "[2]", "result": 8.3, "unit": "%"},
      {"measurement": "viability, T/C", "setting": "[3]", "result": 5.81, "unit": "%"},
      {"measurement": "viability, T/C", "setting": "[4]", "result": 3.27, "unit": "%"},
      {"measurement": "viability, T/C", "setting": "[5]", "result": 2, "unit": "%"},
      {"measurement": "viability, T/C", "setting": "[6]", "result": 1.37, "unit": "%"},
      {"measurement": "viability, T/C", "setting": "[7]", "result": 17, "unit": "%"},
      {"measurement": "viability, T/C", "setting": "[8]", "result": 10.5, "unit": "%"},
      {"measurement": "viability, T/C", "setting": "[9]", "result": 6.32, "unit": "%"},
      {"measurement": "viability, T/C", "setting": "[10]", "result": 4.29, "unit": "%"},
      {"measurement": "viability, T/C", "setting": "[11]", "result": 2.34, "unit": "%"},
      {"measurement": "viability, T/C", "setting": "[12]", "result": 1.47, "unit": "%"},
      {"measurement": "viability, T/C", "setting": "[13]", "result": 16.3, "unit": "%"},
      {"measurement": "viability, T/C", "setting": "[14]", "result": 12.1, "unit": "%"},
      {"measurement": "viability, T/C", "setting": "[15]", "result": 9.75, "unit": "%"},
      {"measurement": "viability, T/C", "setting": "[16]", "result": 4.25, "unit": "%"},
      {"measurement": "viability, T/C", "setting": "[17]", "result": 1.6, "unit": "%"},
      {"measurement": "viability, T/C", "setting": "[18]", "result": 1.03, "unit": "%"},
      {"measurement": "viability, T/C", "setting": "[19]", "result": 16.7, "unit": "%"},
      {"measurement": "viability, T/C", "setting": "[20]", "result": 14.3, "unit": "%"},
      {"measurement": "viability, T/C", "setting": "[21]", "result": 7.19, "unit": "%"},
      {"measurement": "viability, T/C", "setting": "[22]", "result": 1.29, "unit": "%"},
      {"measurement": "viability, T/C", "setting": "[23]", "result": 0.07, "unit": "%"},
      {"measurement": "viability, T/C", "setting": "[24]", "result": 0.1, "unit": "%"},
      {"measurement": "viability, T/C", "setting": "[25]", "result": 26.4, "unit": "%"},
      {"measurement": "viability, T/C", "setting": "[26]", "result": 19.8, "unit": "%"},
      {"measurement": "viability, T/C", "setting": "[27]", "result": 2.82, "unit": "%"},
      {"measurement": "viability, T/C", "setting": "[28]", "result": 0.24, "unit": "%"},
      {"measurement": "viability, T/C", "setting": "[29]", "result": 0.06, "unit": "%"},
      {"measurement": "viability, T/C", "setting": "[30]", "result": 0.1, "unit": "%"},
      {"measurement": "viability, T/C", "setting": "[31]", "result": 0.08, "unit": "%"},
      {"measurement": "viability, T/C", "setting": "[32]", "result": 0.14, "unit": "%"},
      {"measurement": "viability, T/C", "setting": "[33]", "result": 0.13, "unit": "%"},
      {"measurement": "viability, T/C", "setting": "[34]", "result": 0.1, "unit": "%"},
      {"measurement": "viability, T/C", "setting": "[35]", "result": 0.11, "unit": "%"},
      {"measurement": "viability, T/C", "setting": "[36]", "result": 0.13, "unit": "%"}
    ]}
  ]
}
